# What was measured:
# [1] = tested on: 2N5.1 (plate-coated Mamu-B*098); test: T-cell assay with plate-coated Mamu-B*098, IFN-γ release by 2N5.1; type: cell-based, rhesus macaque; settings: 10 μg MHC protein, 1 μg lipopeptide loaded overnight 37 °C; 5 × 10^4 T cells per well, 24 h; IFN-γ ELISA
# Description: (§1) Single-chain MHC proteins in which β2m was linked via a Gly-Ser linker (GGGGSGGSGSGGGSS) to the ectodomain of either Mamu-B*098 or Mamu-A*02, followed by a biotinylation sequence peptide (LHHILDAQKMVWNHR), were also expressed in E. coli and were purified in a similar manner to the trimer complex of Mamu-B*098, β2m and C14nef5. The β2m-linked Mamu-B*098 protein was refolded without C14nef5, whereas the β2m-linked Mamu-A*02 protein was refolded in the presence of the YY9 peptide (YTSGPGIRY). These recombinant proteins (3 mg) were biotinylated by being incubated for 12 h at 20 °C with 2 μg of BirA enzyme (Sigma-Aldrich, St Louis, MO) in a biotinylation buffer containing 100 mM Tris-HCl pH 8.0, 5 mM MgCl2, 4.5 mM ATP and 4 mM D-biotin, and were purified by size-exclusion chromatography.
# Streptavidin-coated 96-well plates (Thermo Scientific, Hudson, NH) were overlaid with 10 μg of the biotinylated β2m-linked Mamu-B*098 and Mamu-A*02 proteins, and lipopeptide Ags (1 μg) were loaded by an overnight incubation at 37 °C. The wells were then washed extensively and T cells (5 × 10^4 per well) were added. After a 24-h incubation at 37 °C, aliquots of the culture supernatants were collected and the amount of IFN-γ released into the medium was measured by a human/monkey IFN-γ enzyme-linked immunosorbent assay kit (Mabtech, Nacka Strand, Sweden).
# Mamu-B*098 = test: Biolayer interferometry binding to β2m-linked Mamu-B*098; parameters: species or system rhesus macaque; settings: Octet RED96; biotinylated β2m-linked Mamu-B*098; lipopeptide 10 μM, 45 min, then 30 min without; 20 mM Tris-HCl pH 7.5, 150 mM NaCl, 2% DMSO; 30 °C; representative of three independent experiments
# Description: as §1
# (§2) The binding of ligands to MHC class I molecules was analysed using the Octet RED96 system equipped with a streptavidin-conjugated biosensor (Pall ForteBio, Menlo Park, CA) according to the manufacturer's instructions. Biotinylated β2m-linked Mamu-B*098 and Mamu-A*02 proteins were immobilized on the sensor tip surface with a signal magnitude of ∼5.0 nm. […] After reference subtraction, binding signals were analysed using the BIAevaluation 3.1 software. […]
# 2N5.1 TCR = test: SPR binding of soluble 2N5.1 TCR to peptide-loaded Mamu-A*02; parameters: species or system rhesus macaque; settings: in words; Biacore 3000, 30 °C; soluble 2N5.1 TCR αβ dimer; YY9 peptide-loaded Mamu-A*02 immobilized; pH 7.5
# Description: as §1
# TCR dimers were generated by the disulfide-linked TCR method. […]
# as §2, with “instructions.” for “instructions. Biotinylated β2m-linked Mamu-B*098 and Mamu-A*02 proteins were immobilized on the sensor tip surface with a signal magnitude of ∼5.0 nm.”
substance,measurement,setting,value
C14-GGAAS,IFN-γ response of 2N5.1 to plate-coated Mamu-B*098 with lipopeptide Ag,[1],failed to stimulate 2N5.1 even in the presence of Mamu-B*098
same,physical interaction with immobilized Mamu-B*098 (biolayer interferometry),Mamu-B*098,bound to B*098
"YTSGPGIRY [YY9, YY9 peptide (…)]",interaction of 2N5.1 TCR with peptide-loaded Mamu-A*02 (SPR),2N5.1 TCR,no interaction was detected

# Source: paper PMC4735555, “Crystal structure of the N-myristoylated lipopeptide-bound MHC class I complex” (Nature Communications, 2016)
